Source: US9000027B2, “Chk1 suppresses a caspase-2 apoptotic response to DNA damage that bypasses p53, bcl-2 and caspase-3” (Dana-Farber Cancer Institute, Inc., priority 2008, dated 2015)
“Also recorded” adds a separate entry of the source.

What was measured:
[1] = tested on: Tg(rag2:EGFP-bcl-2) larvae; test: T-cell radioresistance in Tg(rag2:EGFP-bcl-2) larvae; assay type: in vivo, zebrafish
Description: To test this notion in vivo, we exploited a zebrafish transgenic line expressing a stable EGFP-bcl-2 fusion transgene under control of the rag2 promoter (Langenau et al., 2005). Such Tg(rag2: EGFP-bcl-2) larvae are characterized by highly radioresistant T- and B-cells at 9 dpf. […] Together with our human cell culture studies, our in vivo analysis of Gö6976 in zebrafish raises the remarkable possibility that tumors disrupting p53 or its attendant downstream pathway—in other words, most human cancers—will respond favorably to Chk1 inhibitors.
Immediately before IR, 18-hpf embryos were dechorionated and transferred to fresh egg water containing 1% DMSO, with or without the following inhibitors at indicated final concentrations: KU55933 (10 μM; Sigma) (Hickson et al., 2004); Chk2 Inhibitor II (10 μM; Calbiochem) (Arienti et al., 2005); Gö6976 (1 μM; Calbiochem) (Kohn et al., 2003). Unless stated otherwise, embryos were exposed to the inhibitors for 6 hr, transferred to fresh egg water, rinsed five times for 5 min, and labeled with AO. For experiments with Tg(rag2:EGFP-bcl-2) larvae, larvae were incubated in the inhibitor solution at 4 dpf, irradiated at 5 dpf, rinsed at 6 dpf, incubated in fresh inhibitor for an additional 72 hr, and mounted live at 9 dpf for fluorescence microscopic analysis of EGFP expression.

ATR = test: Western blot of ATR activity (Chk1 phosphorylation at Ser317) in HeLa cells; assay type: cell-based, human; settings: 10 Gy IR+Gö6976 1 μM
Protocol: Protein extract (5-60 μg) was added to 4× gel loading buffer and 10× denaturing solution (Invitrogen) in appropriate proportions, and samples were incubated at 70° C. for 10 min. Samples were run at 200V for 1 hr on a 4-12% Bis-tris gradient gel (Invitrogen). After electrophoresis, samples were transferred for 1.5 hr (350 mA) to a Nitrocellulose membrane (Millipore) using a submerged transfer apparatus (Bio-Rad). Membranes were then blocked with 5% milk in Tris-buffered saline with 0.1% tween (TBST) and probed overnight at 4° C. with the following antibodies: anti-zebrafish Chk1 (diluted 1:200), anti-zebrafish Chk2 (1:200), anti-P-Cdc2 (1:1000), anti-actin (1:2000), anti-human ATR (1:500) and Stressgen anti-human-caspase-3 (1:500) for zebrafish immunoblots; and anti-caspase-2 (1:200), Upstate anti-caspase-3 (1:500), anti-P-ATM (1:500), anti-ATM (1:500), Santa Cruz anti-human Chk1 (1:1000), Santa Cruz anti-human Chk2 (1:1000), anti-P-Chk1 (1:500), anti-P-Chk2 (1:500), anti-P-H2A.X (1:2000), anti-P-cdc25C (1:1000), anti-P-HSP27 (1:1000), anti-HSP27 (1:1000), anti-P-Cdc2 (1:1000), anti-p53 (1:1000) and anti-GAPDH (1:5000) for immunoblots of human tumor cell lysates. Detailed references for all primary antibodies can be found in the ‘Antibodies’ section elsewhere herein.

p53 mutant embryos = test: Live acridine orange (AO) assay of IR-induced cell death in inhibitor-treated p53 mutant embryos; assay type: in vivo, zebrafish
Description: Chk1 inhibitors hold considerable promise in cancer therapy, as they are expected to synergize with genotoxic agents to kill tumor cells lacking functional p53, without affecting normal cells (Kawabe, 2004; Zhou and Bartek, 2004). […] Gö6976 has not been tested in vivo in a vertebrate model system. We therefore evaluated it as well as specific Chk2 and ATM inhibitors in the zebrafish system. Drug toxicity was monitored by scoring the AO reactivity of inhibitor-treated, but non-irradiated, p53^+/+ embryos (left column in FIG. 8A). Unless otherwise indicated, the inhibitors were applied at 18 hpf (that is, immediately before IR) for a total of 6 hours.
Live zebrafish embryos were dechorionated in pronase (2.0 mg/mL in egg water) for 3 to 5 min and rinsed five times in egg water at 18 hpf. Embryos were then γ-irradiated (12.5 Gy) using a ^137Cs-irradiator (Gammacell 1000) at 18 hr post-fertilization (hpf). At 24 hpf, embryos were incubated in […] Acridine Orange (AO; Sigma A-6014) in egg water for 30 min at 28.5° C., followed by 3 quick rinses and three 10-min washes in egg water. 5-10 AO-treated embryos were anesthetized in Tricaine ([…]; 3-amino benzoic acid ethylester from Sigma, A-5040) and mounted laterally on a glass slide in warm 0.5% agarose in egg water by streaking a thin layer of the warm agarose across the surface of the slide, and gently pulling the embryos across the agar with a transfer pipette. Lateral images of each zebrafish were acquired on a Zeiss Axioplan2 fluorescence microscope (5× lens), using OpenLab software and a Hammamatsu C4742-95 digital camera. All images were then converted to 8-bit grayscale in NIH ImageJ using the Image>Type>8-bit command. Next, we cropped the images using the Polyonal Selection tool and the Image>Crop functions to include only the trunk of the animal from the head until the beginning of the yolk tube (MO screen; FIG. 1B) or along the entire spinal cord (epistasis analyses; FIGS. 6A & 6D). The area outside of the selected region of interest was cleared using the Edit>Clear Outside command to create a distinct boundary around the area of interest (this is important as it allows the area of interest to be precisely selected after applying the threshold). Next, we split the acquired images into features of interest and background using the Image>Adjust>Threshold function in NIH ImageJ. We then set the maximum threshold of each image to 255 (the lower slide bar in the Threshold window), and adjusted the minimum threshold to the optimized threshold (see below). The threshold was applied using the Black & White display option, with the following Lut options applied; Thresholded pixels to foreground color; Remaining pixels to background color and Black foreground, white background. […] Next, we re-selected the region of interest on the thresholded image, following the bounded image carefully, and analyzed the pixels of the image using the Analyze>Analyze Particles function. The Minimum Size was set to 1px, the Maximum Size was set to the maximum value of 999999 and the Masks option was selected under the Show pull-down menu. The following extended options were also selected: Display Results; Clear Results; Summarize, Size Distribution and Record Starts. If selected by default, the Exclude on Edges option was deselected. The Area Fraction for each image selection was taken from the Summary window, which is the percentage of pixels in the selection that were black. To ensure valid comparisons of the AO labeling results across all experiments, we quantitatively determined a baseline Area Fraction across a large set of simultaneously irradiated and processed p53^+/+ embryos. […] This analysis yielded a mean value for the total labeled surface area of ˜20% (see FIG. 1B, light gray bar). We included at least 6 p53^+/+ non-injected control embryos in all subsequent AO-labeling experiments. […]

Cn1c2ccccc2c2c3c(c4c5ccccc5n(CCC#N)c4c21)CNC3=O [Gö6976]
larvae with T-cell radioresistance suppressed ([1]; 15 Gy IR at 5 dpf, Gö6976 for 5 days from 4 dpf, scored 9 dpf, n=26, DMSO: none (n=28)): 58% | adverse effects of systemic treatment ([1]; larvae, 5 days exposure): without any apparent adverse effects | phosphorylated Chk1 at Ser317 (readout for ATR activity) (ATR): synergistic increases | Gö6976-treated p53 mutants showing a marked IR-response recovery (p53 mutant embryos; 1 μM, 12.5 Gy IR at 18 hpf, n=210): 95% | radiosensitization of p53 mutants (IR-induced AO labeling) (p53 mutant embryos; 12.5 Gy at 18 hpf, Gö6976 1 μM, KU55933 10 μM, Chk2 Inhibitor II 10 μM, 6 hr): restored a complete response to IR; also recorded: restored IR-induced cell death with complete penetrance | exposure immediately after IR sufficient to phenocopy chk1 MO knockdown (p53 mutant embryos; p53 mutant embryos): 1.5 h | AO staining response versus p53 mutant response (p53 mutant embryos; p53 mutants treated with Gö6976 for 6 hours, IR): ~500 fold
